According to BindingDB's records for PubMed 37939861 (Hebei Normal University):

Test: Inhibition of PCSK9 transcriptional activity in human HepG2 cells by luciferase reporter based assay

## CCOC(=O)c1ccc2nc(N3CCN(NC(=O)c4ccc(Cl)c(Cl)c4)CC3)sc2c1
  IC50: 6.53 µM

## CC(C)(C)OC(=O)N1CCN(Cc2ccc3nc(NC(=O)c4ccc(S(=O)(=O)NCCC#N)cc4)sc3c2)CC1
  IC50: 3.96 µM
